Data from patent publication US5470872A, “Benzopyranols” (Beecham Group plc, priority 1988, dated 1995).

Key:
[1] = tested on: guinea pig tracheal spiral preparations; assay: Bronchodilation in vitro; guinea pig tracheal spiral preparations; type: cell-based; conditions: Cavia porcellus, relaxation of guinea pig tracheal spirals, relative to total relaxation with 10^-3 M isoprenaline; for Emax: read-out: I.A (efficacy, Intrinsic Activity)
Procedure: (a) Bronchodilation in vitro; guinea pig tracheal spiral preparations
Male guinea pigs (300-600 g) were stunned by a blow to the head and bled from the carotid artery. The trachea was exposed, dissected free of connective tissue, and transferred to oxygenated krebs solution at 37° C. Next, spirals (2 per trachea) were prepared by cutting the whole trachea spirally along its longitudinal axis and then dividing this spiral lengthwise. Each preparation was mounted, using silk thread, in a 10 ml organ bath filled with krebs solution at 37° C. and bubbled with 5% CO2 with O2. The resting tension of the preparations was set at 2 g and changes in muscle tension were monitored isometrically by means of a UFI (2 oz) force and displacement transducer (Ormed Ltd) connected to a Linseis pen recorder. All preparations were allowed to equilibrate for 60 minutes. During this equilibration period the preparations were washed by upward displacement at 15 minute intervals and, if necessary, the resting tension was readjusted to 2 g using a mechanical micromanipulator system.
Once a steady resting tension had been obtained, the preparations were dosed cumulatively with the test compound (10^-8 -2×10^-5 M), and finally a maximum relaxation achieved by addition of 10^-3 M isoprenaline. The fall in tension evoked by the test compound was expressed as a percentage of the total relaxation evoked in the presence of 10^-3 M isoprenaline. Appropriate concentration-relaxation curves were then constructed and values for potency (IC50) and efficacy (Intrinsic Activity, I.A.) were obtained.
The composition of Krebs solution is: sodium chloride 118.07 mM, sodium hydrogen carbonate 26.19 mM, potassium chloride 4.68 mM, potassium orthophosphate 1.18 mM, magnesium sulphate septahydrate 1.8 mM and calcium chloride 2.52 mM; pH ca. 7.45.

[2] = tested on: Spontaneously hypertensive rats; assay: Blood pressure lowering activity, tail cuff method, spontaneously hypertensive rats; type: in vivo, rat
Procedure: Blood Pressure Lowering Activity
Systolic blood pressures were recorded by a modification of the tail cuff method described by I. M. Claxton, M. G. Palfreyman, R. H. Poyser, R. L. Whiting, European Journal of Pharmacology, 37,179 (1976). A W+W BP recorder, model 8005 was used to display pulses. Prior to all measurements rats were placed in a heated environment (33.5°±0.5° C.) before transfer to a restraining cage. Each determination of blood pressure was the mean of at least 6 readings. Spontaneously hypertensive rats (ages 12-18 weeks) with systolic blood pressures >180 mmHg were considered hypertensive.

SMILES	IC50 [1]	Emax [1]	other results
CC1(C)Oc2ccc(C(F)(F)C(F)(F)F)cc2[C@@H](N2CCCCC2=O)[C@@H]1O [Example 6, (-)-Trans-3,4-dihydro-2,2-dimethyl-4-(2-oxopiperidin-1-yl)-6-pentafluoroethyl-2H-1-benzopyran-3-ol]		93%	
CC1(C)Oc2ccc(C(O)C(F)(F)F)cc2[C@@H](N2CCCC2=O)[C@@H]1O (some centres unmarked) [Example 3]	370 nM	89%	% change in systolic B.P. 1 h ([2]; 0.3 mg/kg p.o.): -40 ± 10%; % change in systolic B.P. 2 h ([2]; 0.3 mg/kg p.o.): -29 ± 7%; % change in systolic B.P. 4 h ([2]; 0.3 mg/kg p.o.): -25 ± 7%
CC1(C)Oc2ccc(C(F)(F)C(F)(F)F)cc2[C@@H](N2CCCCC2=O)[C@@H]1O (relative stereo) [Example 4, Trans-3,4-dihydro-2,2-dimethyl-4-(2-oxopiperidin-1-yl)-6-pentafluoroethyl-2H-1-benzopyran-3-ol]		90%	% change in systolic B.P. 1 h ([2]; 0.3 mg/kg p.o.): -36 ± 3%; % change in systolic B.P. 2 h ([2]; 0.3 mg/kg p.o.): -30 ± 1%; % change in systolic B.P. 4 h ([2]; 0.3 mg/kg p.o.): -26 ± 2%
CC1(C)C=C(N2CCCCC2=O)c2cc(C(F)(F)C(F)(F)F)ccc2O1 [Example 8, 2,2-Dimethyl-6-pentafluoroethyl-4-(2-oxopiperidin-1-yl)-2H-1-benzopyran]	190 nM	88%	
CC1(C)Oc2ccc(C(F)(F)C(F)(F)F)cc2[C@@H](N2CCCC2=O)[C@@H]1O (relative stereo) [Example 1, Trans-3,4-Dihydro-2,2-dimethyl-6-pentafluoroethyl-4-(2-oxopyrrolidin-1-yl)-2H-1-benzopyran-3-ol]	190 nM	88%	% change in systolic B.P. 1 h ([2]; 0.1 mg/kg p.o.): -19 ± 3%; % change in systolic B.P. 2 h ([2]; 0.1 mg/kg p.o.): -30 ± 2%; % change in systolic B.P. 4 h ([2]; 0.1 mg/kg p.o.): -28 ± 2%

Now from value to molecule, other results behind:

IC50 [1]	SMILES	Emax [1]	other results
98 nM	CC1(C)C=C(N2CCCC2=O)c2cc(C(F)(F)C(F)(F)F)ccc2O1 [Example 2, 2,2-Dimethyl-6-pentafluoroethyl-4-(2-oxopyrrolidin-1-yl)-2H-1-benzopyran]	96%	% change in systolic B.P. 1 h ([2]; 1.0 mg/kg p.o.): -38 ± 2%; % change in systolic B.P. 2 h ([2]; 1.0 mg/kg p.o.): -24 ± 10%; % change in systolic B.P. 4 h ([2]; 1.0 mg/kg p.o.): -18 ± 6%
71.5 nM	CC1(C)C=C(n2ccccc2=O)c2cc(C(F)(F)C(F)(F)F)ccc2O1 [Example 9, 2,2-Dimethyl-6-pentafluoroethyl-4-(2(1H)pyridon-1-yl)-2H-1-benzopyran]	84%	
150 nM	CC1(C)Oc2ccc(C(F)(F)C(F)(F)F)cc2[C@@H](n2ccccc2=O)[C@@H]1O (relative stereo) [Example 5, Trans-3,4-dihydro-2,2-dimethyl-6-pentafluoroethyl-4-(2(1H)-pyridon-1-yl)-2H-1-benzopyran-3-ol]	97%	
